Numbers after ± are expanded uncertainties. Values belong to the molecule of their own block, whether it stands above or below them.
Columns and labels:
[1] = 303.15 K; for surface tension liquid-gas: Ring tensiometer; for viscosity / mass density: 101.33 kPa, Liquid; for viscosity: Falling or rolling sphere viscometry; for mass density: Vibrating tube method
[2] = xn = mol fraction of the nth substance listed; conditions: 303.15 K; for surface tension liquid-gas: Ring tensiometer; for viscosity / mass density: 101.33 kPa, Liquid; for viscosity: Falling or rolling sphere viscometry; for mass density: Vibrating tube method

SMILES: CCCC(=O)OCC [ethyl butanoate]
surface tension liquid-gas [1]: 23.4 ± 0.47 mN/m
viscosity [1]: 0.591 ± 0.006 mPa·s
mass density [1]: 868.21 ± 0.45 kg/m3

SMILES: CCCC(=O)OCC [ethyl butanoate] + CO
surface tension liquid-gas ([2]; x1 = 0.05): 21.86 ± 0.33 mN/m
surface tension liquid-gas ([2]; x1 = 0.101): 22.03 ± 0.33 mN/m
surface tension liquid-gas ([2]; x1 = 0.15): 22.22 ± 0.34 mN/m
surface tension liquid-gas ([2]; x1 = 0.2): 22.36 ± 0.34 mN/m
surface tension liquid-gas ([2]; x1 = 0.299): 22.65 ± 0.34 mN/m
surface tension liquid-gas ([2]; x1 = 0.4): 22.85 ± 0.35 mN/m
surface tension liquid-gas ([2]; x1 = 0.496): 22.99 ± 0.35 mN/m
surface tension liquid-gas ([2]; x1 = 0.605): 23.12 ± 0.36 mN/m
surface tension liquid-gas ([2]; x1 = 0.7): 23.18 ± 0.36 mN/m
surface tension liquid-gas ([2]; x1 = 0.8): 23.29 ± 0.36 mN/m
surface tension liquid-gas ([2]; x1 = 0.883): 23.35 ± 0.36 mN/m
viscosity ([2]; x1 = 0.104): 0.511 ± 0.004 mPa·s
viscosity ([2]; x1 = 0.2036): 0.517 ± 0.004 mPa·s
viscosity ([2]; x1 = 0.3147): 0.522 ± 0.004 mPa·s
viscosity ([2]; x1 = 0.4147): 0.529 ± 0.004 mPa·s
viscosity ([2]; x1 = 0.5064): 0.535 ± 0.005 mPa·s
viscosity ([2]; x1 = 0.6226): 0.543 ± 0.005 mPa·s
viscosity ([2]; x1 = 0.6976): 0.551 ± 0.005 mPa·s
viscosity ([2]; x1 = 0.8054): 0.565 ± 0.005 mPa·s
viscosity ([2]; x1 = 0.9004): 0.577 ± 0.005 mPa·s
mass density ([2]; x1 = 0.1993): 820.83 ± 0.18 kg/m3
mass density ([2]; x1 = 0.3): 832.61 ± 0.21 kg/m3
mass density ([2]; x1 = 0.4): 841.45 ± 0.24 kg/m3
mass density ([2]; x1 = 0.449): 845.03 ± 0.26 kg/m3
mass density ([2]; x1 = 0.474): 846.71 ± 0.26 kg/m3
mass density ([2]; x1 = 0.4995): 848.3 ± 0.27 kg/m3
mass density ([2]; x1 = 0.5997): 853.94 ± 0.31 kg/m3
mass density ([2]; x1 = 0.65): 856.33 ± 0.32 kg/m3
mass density ([2]; x1 = 0.7495): 860.43 ± 0.36 kg/m3
mass density ([2]; x1 = 0.899): 865.48 ± 0.41 kg/m3
mass density ([2]; x1 = 0.9001): 865.54 ± 0.41 kg/m3
mass density ([2]; x1 = 0.9465): 866.88 ± 0.43 kg/m3

SMILES: CCCC(=O)OCC [ethyl butanoate] + O
surface tension liquid-gas ([2]; x2 = 0.018): 23.46 ± 0.37 mN/m
surface tension liquid-gas ([2]; x2 = 0.041): 23.53 ± 0.37 mN/m
surface tension liquid-gas ([2]; x2 = 0.055): 23.6 ± 0.37 mN/m
viscosity ([2]; x2 = 0.0128): 0.587 ± 0.006 mPa·s
viscosity ([2]; x2 = 0.0319): 0.584 ± 0.005 mPa·s
viscosity ([2]; x2 = 0.039): 0.586 ± 0.005 mPa·s
viscosity ([2]; x2 = 0.0488): 0.584 ± 0.005 mPa·s
viscosity ([2]; x2 = 0.0588): 0.597 ± 0.006 mPa·s
mass density ([2]; x2 = 0.019): 868.19 ± 0.45 kg/m3
mass density ([2]; x2 = 0.033): 868.46 ± 0.45 kg/m3
mass density ([2]; x2 = 0.039): 868.71 ± 0.45 kg/m3
mass density ([2]; x2 = 0.056): 868.98 ± 0.45 kg/m3

Next, values leading:

surface tension liquid-gas [1]: 21.68 ± 0.43 mN/m
viscosity [1]: 0.504 ± 0.004 mPa·s
mass density [1]: 781.91 ± 0.14 kg/m3
SMILES: CO [methanol]

mass density ([2]; x2 = 0.1031): 799.74 ± 0.16 kg/m3
mass density ([2]; x2 = 0.2055): 818.52 ± 0.18 kg/m3
mass density ([2]; x2 = 0.3014): 836.97 ± 0.21 kg/m3
mass density ([2]; x2 = 0.4013): 857.06 ± 0.24 kg/m3
mass density ([2]; x2 = 0.4994): 877.48 ± 0.28 kg/m3
SMILES: CO [methanol] + O

Source: the NIST ThermoML archive (doi:10.1021/je0301500)
